Data set [1] deals with A549. Briefly: Antiproliferative activity against human A549 cells harboring wild type EGFR after 72 hrs by MTT assay. In kind it is functional, cell-based. The note with it: A549, 72 h. (In general: Tetrazolium dyes change colour on reduction, which living cells bring about.)
For data set [2], the system named is NCI-H1975. The experiment in a line: Antiproliferative activity against human NCI-H1975 cells harboring EGFR L858R/T790M mutant after 72 hrs by MTT assay. Format: functional, cell-based. The note with it: NCI-H1975, 72 h.
The nature of data set [3]: Aqueous solubility of the compound at 1 mg. In kind it is physicochemical.
Data set [4] has as its system HCC827. Briefly: Antiproliferative activity against human HCC827 cells harboring EGFR Del19 mutant after 72 hrs by MTT assay. Format: functional, cell-based. The note with it: HCC827, 72 h.
In data set [5] the test system is NCI-H1975. Briefly: Antitumor activity against human NCI-H1975 cells xenografted in nude mouse assessed as tumor growth inhibition at 25 mg/kg administered via oral gavage qd measured every 2 days up to 18 days relative to control. Format: functional. The note with it: read-out: TGI.

Values after ≈ are worked out from the molar mass of the structure shown.

A word on the IC50: it is the concentration at which inhibition is half-maximal. Read a high IC50 as a need for much substance. Broadly, the solubility is the concentration that dissolves in the medium under given conditions.

As to `C=CC(=O)N1CCC[C@@H]1Cn1cc(-c2ccc3c(c2)OCO3)c2c(N)ncnc21`, the half-maximal inhibitory concentration (IC50) in data set [1] was found to be 12.9 µM; in data set [2] it was 2.92 µM. The compound also had a solubility in data set [3] of 100 µg/mL (≈ 255 µM).
For `C=CC(=O)N1CCC(Cn2cc(-c3ccc4c(c3)OCO4)c3c(N)ncnc32)C1` (single isomer, unassigned), in that order: 8.24 µM, 6.3 µM and 100 µg/mL (≈ 255 µM).
With `C=CS(=O)(=O)N1CCC[C@@H]1Cn1cc(-c2ccc(Oc3ccccc3)cc2)c2c(N)ncnc21`, the half-inhibitory concentration (IC50) in data set [1] is 7.44 µM; in data set [2] it was 0.44 µM; in data set [4], 0.504 µM. Moreover, the solubility in data set [3] is less than 10 µg/mL.
For `C=CS(=O)(=O)N1CC[C@H](Cn2cc(-c3ccc4c(c3)OCO4)c3c(N)ncnc32)C1`, in that order: 1.78 µM, 0.33 µM, 0.016 µM and 100 µg/mL (≈ 234 µM).
Consider `C=CC(=O)N1CCC[C@@H]1Cn1cc(-c2ccc(Oc3ccccc3)cc2)c2c(N)ncnc21`, for which the 50% inhibitory concentration (IC50) in data set [1] worked out at 15.5 µM; in data set [2], 1.92 µM. Moreover, the solubility in data set [3] is less than 10 µg/mL.
As to `C=CC(=O)N1CCC[C@@H](n2nc(-c3ccc(Oc4ccccc4)cc3)c3c(N)ncnc32)C1` [IBRUTINIB], the IC50 stood at 21.8 µM in data set [1], 1.27 µM in data set [2] and 0.039 µM in data set [4]. The compound further gave a solubility in data set [3] of less than 10 µg/mL. The inhibition in vivo at 25 mg/kg in data set [5] was 59.6%.
As for `C=CS(=O)(=O)N1CC[C@H](Cn2cc(-c3ccc(Oc4ccccc4)cc3)c3c(N)ncnc32)C1`, the concentration for half-maximal inhibition (IC50) in data set [1] was determined as 13 µM; in data set [2] it was 0.91 µM; in data set [4] it was 0.581 µM. The solubility in data set [3] is less than 10 µg/mL.
For the compound `C=CC(=O)N1CCC(Cn2cc(-c3ccc(Oc4ccccc4)cc3)c3c(N)ncnc32)C1` (single isomer, unassigned), the half-inhibitory concentration (IC50) turned out to be 14.2 µM in data set [1] and 6.31 µM in data set [2]. In addition, the solubility in data set [3] is less than 10 µg/mL.

The values are drawn from ChEMBL document CHEMBL4052785, “Discovery of (R)-5-(benzo[d][1,3]dioxol-5-yl)-7-((1-(vinylsulfonyl)pyrrolidin-2-yl)methyl)-7H-pyrrolo[2,3-d]pyrimidin-4-amine (B6) as a potent Bmx inhibitor for the treatment of NSCLC” (Bioorg Med Chem Lett, 2017).
